In patent US5883098A, “Piperazine derivatives” (Fujisawa Pharmaceutical Co., Ltd., priority 1993, dated 1999):
Where a name gives a salt, the structure may show the parent alone.

biological target: T1, guinea pig lung membranes (Cavia porcellus, UniProt P30547); experiment: ^3 H-Substance P binding to guinea pig lung membranes; settings: at the concentration of 1 μg/ml; read-out: inhibition rate of ^3 H-Substance P binding to guinea pig lung membranes
T1 construct: The trachea and lung were removed and homogenized in ice-cold buffer; from tissue; host or cells: guinea pig (male Hartley strain) trachea and lung, crude membrane fraction
T1 sequence (P30547 whole entry): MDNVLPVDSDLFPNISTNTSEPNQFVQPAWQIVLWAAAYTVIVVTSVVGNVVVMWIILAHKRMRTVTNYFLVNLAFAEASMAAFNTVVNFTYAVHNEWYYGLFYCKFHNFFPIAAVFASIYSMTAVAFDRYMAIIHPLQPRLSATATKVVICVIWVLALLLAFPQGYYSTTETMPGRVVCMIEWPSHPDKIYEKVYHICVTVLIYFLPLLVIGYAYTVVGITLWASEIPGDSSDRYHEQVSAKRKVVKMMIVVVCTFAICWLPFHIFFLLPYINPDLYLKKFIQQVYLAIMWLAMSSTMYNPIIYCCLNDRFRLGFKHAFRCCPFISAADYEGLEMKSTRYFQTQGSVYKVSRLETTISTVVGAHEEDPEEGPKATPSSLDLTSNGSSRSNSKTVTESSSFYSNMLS
Method: ^3 H-Substance P Binding to Guinea Pig Lung Membranes Test Method
^3 H-Substance P Binding to Guinea Pig Lung Membranes
(a) Crude lung membrane preparation
Male Hartly strain guinea pigs were stunned and bled. The trachea and lung were removed and homogenized in ice-cold buffer (0.25M sucrose, 50 mM Tris-HCl pH 7.5, 0.1 mM EDTA) by using Polytoron (Kinematica). The homogenate was centrifuged (1000×g, 10 minutes) to remove tissue clumps and the supernatant was centrifuges (35000×g, 20 minutes) to yield pellet. The pellet was resuspended in buffer (5 mM Tris-HCl pH 7.5), homogenized with a teflon homogenizer and centrifuged (35000×g, 20 minutes) to yield pellet which was referred to as crude membrane fractions. The obtained pellet was resuspended in buffer (50 mM Tris-HCl pH 7.5) and stored at -70° C. until use.
(b) ^3 H-Substance P binding to preparation membrane
Frozen crude membrane fractions were thawed and resuspended in Medium 1 (50 mM Tris-HCl pH 7.5, 1 mM MnCl2, 0.02% BSA, 2 μg/ml chymostatin, 4 μg/ml leupeptin, 40 μg/ml bacitracin, 10 μM phosphoramidon). ^3 H-Substance P (1 nM) was incubated with 100 μl of the membrane preparations with or without test compounds in Medium 1 at 25° C. for 30 minutes in a final volume of 500 μl. At the end of the incubation period, 5 ml ice-cold 50 mM Tris-HCl buffer was added to each tube and its content was quickly filtered over a Wahtman GF/B glass filter (pretreated with 0.1% polyethylene imine for 3 hours prior to use) under aspiration. Each of the filters was then washed four times with 5 ml of ice-cold buffer (50 mM Tris-HCl pH 7.5). […] All data presented are specific binding defined as that displaceable by 5 μM unlabeled Substance P.

| inhibition at 1 µg/mL [%] | Structure (SMILES) |
| --- | --- |
| > 90 | CC(=O)N1CCN(C(=O)c2cc(C(F)(F)F)cc(C(F)(F)F)c2)[C@H](Cc2ccc(C)c(C)c2)C1 [Example 19-10, (2R)-4-Acetyl-1-[3,5-bis(trifluoromethyl)benzoyl]-2-(3,4-dimethylbenzyl)piperazine] |
| > 90 | O=C(CCCc1c[nH]c2ccccc12)N1CCN(C(=O)c2cc(C(F)(F)F)cc(C(F)(F)F)c2)[C@H](Cc2ccccc2)C1 [Example 17-11, (2R)-2-Benzyl-1-[3,5-bis(trifluoromethyl)benzoyl]-4-[4-(1H-indol-3-yl)butyryl]piperazine] |
| > 90 | O=C(/C=C/c1ccc(F)cc1)N1CCN(C(=O)c2cc(C(F)(F)F)cc(C(F)(F)F)c2)[C@H](Cc2c[nH]c3ccccc23)C1 [Example 17-2, (2R)-1-[3,5-Bis(trifluoromethyl)benzoyl]-2-(1H-indol-3-yl-methyl)-4-(4-fluoro-trans-cinnamoyl)piperazine] |
| > 90 | O=C(/C=C/c1ccccc1)N1CCN(C(=O)c2cc(C(F)(F)F)cc(C(F)(F)F)c2)[C@H](Cc2c[nH]c3ccccc23)C1 [Example 17-1, (2R)-1-[3,5-Bis(trifluoromethyl)benzoyl]-2-(1H-indol-3-yl-methyl)-4-(trans-cinnamoyl)piperazine] |
| > 90 | O=C(/C=C/c1ccc([N+](=O)[O-])cc1)N1CCN(C(=O)c2cc(C(F)(F)F)cc(C(F)(F)F)c2)[C@H](Cc2ccccc2)C1 [Example 17-24, (2R)-2-Benzyl-1-[3,5-bis(trifluoromethyl)benzoyl]-4-(4-nitro-trans-cinnamoyl)piperazine] |
| > 90 | O=C(CCc1c[nH]c2ccccc12)N1CCN(C(=O)c2cc(C(F)(F)F)cc(C(F)(F)F)c2)[C@H](Cc2ccccc2)C1 [Example 17-10, (2R)-2-Benzyl-1-[3,5-bis(trifluoromethyl)benzoyl]-4-[3-(1H-indol-3-yl)propionyl]piperazine] |
| > 90 | CN(C)C(=O)N1CCN(C(=O)c2cc(C(F)(F)F)cc(C(F)(F)F)c2)[C@H](Cc2c[nH]c3ccccc23)C1 [Example 19-1, (2R)-1-[3,5-Bis(trifluoromethyl)benzoyl]-2-(1H-indol-3-yl-methyl) -4-(N,N-dimethylaminocarbonyl)piperazine] |
| > 90 | O=C(CCCc1ccccc1)N1CCN(C(=O)c2cc(C(F)(F)F)cc(C(F)(F)F)c2)[C@H](Cc2ccccc2)C1 [Example 17-5, (2R)-2-Benzyl-1-[3,5-bis(trifluoromethyl)benzoyl]-4-(4-phenylbutyryl)piperazine] |
| > 90 | O=C(c1cc(C(F)(F)F)cc(C(F)(F)F)c1)N1CCNC[C@H]1Cc1ccccc1 [Example 7-7] |
| > 90 | O=C(CCc1ccccc1)N1CCN(C(=O)c2cc(C(F)(F)F)cc(C(F)(F)F)c2)[C@H](Cc2ccccc2)C1 [Example 17-4, (2R)-2-Benzyl-1-[3,5-bis(trifluoromethyl)benzoyl]-4-(3-phenylpropionyl)piperazine] |
| > 90 | CN(C)C(=O)N1CCN(C(=O)c2cc(C(F)(F)F)cc(C(F)(F)F)c2)[C@H](Cc2ccccc2)C1 [Example 19-4, (2R)-2-Benzyl-1-[3,5-bis(trifluoromethyl)benzoyl]-4-(N,N-dimethylcarbamoyl)piperazine] |

| Structure (SMILES) | inhibition at 1 µg/mL [%] |
| --- | --- |
| Cc1ccc(C[C@@H]2CNCCN2C(=O)c2cc(C(F)(F)F)cc(C(F)(F)F)c2)cc1C [Example 24-8, (2R)-1-[3,5-Bis(trifluoromethyl)benzoyl]-2-(3,4-dimethylbenzyl) piperazine hydrochloride] | > 90 |
| CN(C)CC(=O)N1CCN(C(=O)c2cc(C(F)(F)F)cc(C(F)(F)F)c2)[C@H](Cc2c[nH]c3ccccc23)C1 [Example 24-4, (2R)-1-[3,5-Bis(trifluoromethyl)benzoyl]-2-(1H-indol-3-yl-methyl)-4-[2-(N,N-dimethylamino)acetyl]-piperazine hydrochloride] | > 90 |

biological target: T2, h-NK1 receptors (Homo sapiens, UniProt P25103); experiment: ^125 I-BH-Substance P binding to h-NK1 receptors; settings: at the concentration of 0.1 μg/ml; CHO cell membranes expressing h-NK1 receptors; read-out: inhibition rate of ^125 I-BH-Substance P binding to h-NK1 receptors
T2 construct: expressed in transfected cells; host or cells: CHO cells
T2 sequence (P25103 whole entry): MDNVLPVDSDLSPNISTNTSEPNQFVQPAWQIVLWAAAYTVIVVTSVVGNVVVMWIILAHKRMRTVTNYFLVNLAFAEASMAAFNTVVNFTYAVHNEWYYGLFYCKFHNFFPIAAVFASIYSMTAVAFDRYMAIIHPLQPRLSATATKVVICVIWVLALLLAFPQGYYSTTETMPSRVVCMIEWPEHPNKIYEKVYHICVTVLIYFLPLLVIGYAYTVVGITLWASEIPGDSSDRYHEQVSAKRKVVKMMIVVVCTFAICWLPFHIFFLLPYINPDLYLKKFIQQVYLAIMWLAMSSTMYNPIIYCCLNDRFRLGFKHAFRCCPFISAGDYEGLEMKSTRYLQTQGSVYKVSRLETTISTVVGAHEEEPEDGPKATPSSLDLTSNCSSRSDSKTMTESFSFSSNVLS
Method: ^125 I-BH-Substance P Binding to h-NK1 Receptors Test Method
^125 I-BH-Substance P Binding to h-NK1 Receptors
(a) Crude CHO cell membrane preparation
CHO cells permanently expressing h-NK1 receptors were harvested and homogenized with a Dounce homogenizer at 4° C. in a buffer (0.25M sucrose, 25 mM Tris-HCl pH 7.4, 10 mM MgCl2, 1 mM EDTA, 5 μg/ml p-APMSF). The homogenate was centrifuged (500×g, 10 minutes), and the pellet was resuspended in the same buffer, homogenized, and centrifuged. The two supernatants were combined and centrifuged (100,000×g, 1 hour). The crude cell membranes thus isolated were resuspended in buffer (25 mM Tris-HCl pH 7.4, 10 mM MgCl2, 1 mM EDTA, 5 μg/ml p-APMSF) and stored at -80° C. until use.
(b) ^125 I-BH-Substance P binding to preparation membrane Cell membranes (6 μg/ml) were incubated with ^125 I-BH-Substance P (0.1 nM) with or without test compounds in 0.25 ml of Medium 2(50 mM Tris-HCl pH 7.4, 5 mM MnCl2, 20 μg/ml chymostatin, 40 μg/ml bacitracin, 4 μg/ml leupeptin, 5 μg/ml p-APMSF, 200 μg/ml BSA) at 22° C. for 90 minutes. At the end of the incubation period, the content was quickly filtered over a Wahtman GF/C glass filter (pretreated with 0.1% polyethylene imine for 3 hours prior to use) under aspiration. Each of the filters was then washed four times with 5 ml of buffer (50 mM Tris-HCl pH 7.4, 5 mM MnCl2). The radioactivity was counted by using Auto Gamma counter (Packerd RIASTAR 5420A). All data presented are specific binding defined as that displaceable by 3 μM unlabeled Substance P.

| inhibition at 0.1 µg/mL [%] | Structure (SMILES) |
| --- | --- |
| > 90 | O=C(/C=C/c1cccnc1)N1CCN(C(=O)c2cc(C(F)(F)F)cc(C(F)(F)F)c2)[C@H](Cc2c[nH]c3ccccc23)C1 [Example 17-57, (2R)-1-[3,5-Bis(trifluoromethyl)benzoyl]-2-(1H-indol-3-yl-methyl)-4-[3-(3-pyridyl)-trans-acryloyl]-piperazine] |
| > 90 | O=C(/C=C/C1CCCCC1)N1CCN(C(=O)c2cc(C(F)(F)F)cc(C(F)(F)F)c2)[C@H](Cc2c[nH]c3ccccc23)C1 [Example 17-50, (2R)-1-[3,5-Bis(trifluoromethyl)benzoyl]-4-[(3-cyclo-hexyl)-trans-acryloyl]-2-(1H-indol-3-yl-methyl)-piperazine] |
| > 90 | CC(=O)Nc1nc(/C=C/C(=O)N2CCN(C(=O)c3cc(C(F)(F)F)cc(C(F)(F)F)c3)[C@H](Cc3c[nH]c4ccccc34)C2)cs1 [Example 21-3, (2R)-4-[3-[2-(Acetylamino)thiazol-4-yl]-trans-acryloyl]-1-[3,5-bis(trifluoromethyl)benzoyl]-2-(1H-indol-3-yl-methyl)piperazine] |
| > 90 | CCCC(=O)Nc1nc(CN2CCN(C(=O)c3cc(C(F)(F)F)cc(C(F)(F)F)c3)[C@H](Cc3c[nH]c4ccccc34)C2)cs1 [Example 79-6] |
| > 90 | CN1CCN(NC(=O)CN2CCN(C(=O)c3cc(C(F)(F)F)cc(C(F)(F)F)c3)[C@H](Cc3c[nH]c4ccccc34)C2)CC1 [Example 77, (2R)-1-[3,5-bis(trifluoromethyl)benzoyl]-2-(1H-indol-3-ylmethyl)-4-[N-(4-methyl-1-piperazinyl)carbamoylmethyl]piperazine] |
| > 90 | CNC(=O)CN1CCN(C(=O)c2cc(C(F)(F)F)cc(C(F)(F)F)c2)[C@H](Cc2c[nH]c3ccccc23)C1 [Example 26, (2R)-1-[3,5-bis (trifluoromethyl)benzoyl]-2-(1H-indol-3-yl-methyl)-4-(N-methylcarbamoylmethyl)piperazine hydrochloride] |
| > 90 | CC(C)(C)C(=O)Nc1nc(CN2CCN(C(=O)c3cc(C(F)(F)F)cc(C(F)(F)F)c3)[C@H](Cc3c[nH]c4ccccc34)C2)cs1 [Example 79-4] |
| > 90 | Cc1ccc(C[C@@H]2CN(C(=O)/C=C/C3CCCCC3)CCN2C(=O)c2cc(C(F)(F)F)cc(C(F)(F)F)c2)cc1C [Example 17-60, (2R)-1-[3,5-Bis(trifluoromethyl)benzoyl]-2-(3,4-dimethylbenzyl)-4-(3-cyclohexyl-trans-acryloyl)piperazine] |
| > 90 | O=C(C1CC1)N1CCN(C(=O)c2cc(C(F)(F)F)cc(C(F)(F)F)c2)[C@H](Cc2c[nH]c3ccccc23)C1 [Example 17-56, (2R)-1-[3,5-Bis(trifluoromethyl)benzoyl]-4-(cyclo-propylcarbonyl)-2-(1H-indol-3-yl-methyl)piperazine] |
| > 90 | CS(=O)(=O)N1CCN(C(=O)c2cc(C(F)(F)F)cc(C(F)(F)F)c2)[C@H](Cc2c[nH]c3ccccc23)C1 [Example 19-13, (2R)-1-[3,5-Bis(trifluoromethyl)benzoyl]-2-(1H-indol-3-yl-methyl)-4-mesylpiperazine] |
| > 90 | NC(=O)CN1CCN(C(=O)c2cc(C(F)(F)F)cc(C(F)(F)F)c2)[C@H](Cc2c[nH]c3ccccc23)C1 [Example 25-2, (^2 R)-1-[3,5-Bis(trifluoromethyl)benzoyl]-2-(1H-indol-3-yl-methyl)-4-(carbamoylmethyl)piperazine] |
